# In patent US11700853B2, “Plant health compositions comprising a water-soluble pesticide and a water-insoluble agrochemical” (priority 2010, dated 2023):
# Experiments:
# [1] = at 20° C.; cited from earlier work
# [2] = Dissolution in surfactants at 20% w/v on heating in a water bath, then cooling to room temperature; conditions: for Dissolution temp.: temperature at which the mixture cleared
# [3] = Dissolution/melting temperature in surfactants by differential scanning calorimetry (DSC); conditions: for effect of surfactants on dissolution/melting temperature: cationic, nonionic and anionic surfactants tested, compared to absence of a surfactant
# [4] = 20% w/v in AGM-550, cooled to 20-25° C. after 45 ° C.
# [5] = 20% w/v in Ethomeen T/15, cooled to 20-25° C. after 50 ° C.
# [6] = 20% w/v in Ethomeen T/15 at 45 ° C.
# [7] = 20% w/v in Ethomeen T/15 at 50 ° C.
# [8] = 20% w/v in coco quaternary amine 2 EO (Ethoquad C/12)
# [9] = 20% w/v in cocoamine 2EO (Ethomeen C/12)
molecule,measurement,setting,value
C#CCOc1ccc(CCNC(=O)C(OCC#C)c2ccc(Cl)cc2)cc1OC (stereo not drawn) [mandipropamid],water solubility (Solub.),[1],4.2 µg/mL
CCC(Oc1ccc(F)c(C(F)(F)F)c1)C(=O)NCc1ccccc1 (stereo not drawn) [beflubutamid],water solubility (Solub.),[1],3.3 µg/mL
beta-cypermemethrin,water solubility (Solub.),[1],51.5 µg/mL
CCOC(=O)[C@@H](C)Oc1ccc(Oc2cnc3cc(Cl)ccc3n2)cc1 [quizalofop-P-ethyl],Observation at room temp.,[2]; [4],Dissolved
same,Dissolution temp.,[2]; 20% w/v in AGM-550,45 °C
same,Observation,[2]; 20% w/v in AGM-550 at 45 ° C.,Dissolved
same,Observation at room temp.,"[2]; 20% w/v in Armeen APA 9, cooled to 20-25° C. after 50 ° C.",Dissolved
same,Dissolution temp.,[2]; 20% w/v in Armeen APA 9,50 °C
same,Observation,[2]; 20% w/v in Armeen APA 9 at 45 ° C.,Not Dissolved
same,Observation,[2]; 20% w/v in Armeen APA 9 at 50 ° C.,Dissolved
same,Observation at room temp.,"[2]; 20% w/v in Ethomeen C/12, cooled to 20-25° C. after 55 ° C.",Dissolved
same,Observation at room temp.,"[2]; 20% w/v in Ethomeen C/12, cooled to 20-25° C. after 65 ° C.",Dissolved
same,Observation,[2]; 20% w/v in Ethomeen C/12 at 50 ° C.,Not Dissolved
same,Observation,[2]; 20% w/v in Ethomeen C/12 at 55 ° C.,Dissolved
same,Observation,[2]; 20% w/v in Ethomeen C/12 at 65 ° C.,Dissolved
same,Observation at room temp.,[2]; [5],Dissolved
same,Dissolution temp.,[2]; 20% w/v in Ethomeen T/15,50 °C
same,Observation,[2]; [6],Not Dissolved
same,Observation,[2]; [7],Dissolved
same,Observation at room temp.,"[2]; 20% w/v in Ethoquad C/12, cooled to 20-25° C. after 65 ° C.",Dissolved
same,Observation,[2]; 20% w/v in Ethoquad C/12 at 55 ° C.,Not Dissolved
same,Observation,[2]; 20% w/v in Ethoquad C/12 at 65 ° C.,Dissolved
same,Observation,[2]; 20% w/v in alkylamine oxide at 60 ° C.,Dissolved
same,Observation at room temp.,"[2]; 20% w/v in alkylamine oxide, cooled to 20-25° C. after 60 ° C.",Dissolved
same,Dissolution temp.,[2]; 20% w/v in alkylamine oxide,60 °C
same,Dissolution temp.,[2]; [8],65 °C
same,Dissolution temp.,[2]; [9],55 °C
same,melting/dissolution point,"[3]; 40 wt % in C6-9 amidopropyl dimethylamine surfactant (ARMEEN APA 9), FIG. 16",63 °C
same,melting/dissolution point,"[3]; 65 wt % in C6-9 amidopropyl dimethylamine surfactant (ARMEEN APA 9), FIG. 16",69 °C
same,effect of surfactants on dissolution/melting temperature,[3],reduced
C=CCOC(Cn1ccnc1)c1ccc(Cl)cc1Cl (stereo not drawn) [imazalil],water solubility (Solub.),[1],0.1 µg/mL
CCOC(=O)[C@@H](C)Oc1ccc(Oc2nc3ccc(Cl)cc3o2)cc1 [fenoxaprop-P-ethyl],water solubility (Solub.),[1],0.7 µg/mL
CCOP(=S)(OCC)Oc1ccc(=O)n(-c2ccccc2)n1 [pyridaphenthion],water solubility (Solub.),[1],55.2 µg/mL
CC(C)(C)C(O)(CCc1ccc(Cl)cc1)Cn1cncn1 (stereo not drawn) [tebuconazole],Observation at room temp.,[2]; [4],Dissolved
same,Dissolution temp.,[2]; 20% w/v in AGM-550,45 °C
same,Observation,[2]; 20% w/v in AGM-550 at 45 ° C.,Dissolved
same,Observation at room temp.,"[2]; 20% w/v in Armeen APA 9, cooled to 20-25° C. after 40 ° C.",Dissolved
same,Dissolution temp.,[2]; 20% w/v in Armeen APA 9,40 °C
same,Observation,[2]; 20% w/v in Armeen APA 9 at 40 ° C.,Dissolved
same,Observation at room temp.,"[2]; 20% w/v in Ethomeen C/12, cooled to 20-25° C. after 45 ° C.",Dissolved
same,Observation,[2]; 20% w/v in Ethomeen C/12 at 45 ° C.,Dissolved
same,Observation at room temp.,[2]; [5],Dissolved
same,Dissolution temp.,[2]; 20% w/v in Ethomeen T/15,50 °C
same,Observation,[2]; [6],Not Dissolved
same,Observation,[2]; [7],Dissolved
same,Observation at room temp.,"[2]; 20% w/v in Ethoquad C/12, cooled to 20-25° C. after 45 ° C.",Dissolved
same,Observation,[2]; 20% w/v in Ethoquad C/12 at 45 ° C.,Dissolved
same,Observation at room temp.,"[2]; 20% w/v in Surfonic L24-9, cooled to 20-25° C. after 50 ° C.",Dissolved
same,Dissolution temp.,[2]; 20% w/v in Surfonic L24-9,50 °C
same,Observation,[2]; 20% w/v in Surfonic L24-9 at 45 ° C.,Not Dissolved
same,Observation,[2]; 20% w/v in Surfonic L24-9 at 50 ° C.,Dissolved
same,Observation,[2]; 20% w/v in alkylamine oxide at 45 ° C.,Dissolved
same,Observation at room temp.,"[2]; 20% w/v in alkylamine oxide, cooled to 20-25° C. after 45 ° C.",Dissolved
same,Dissolution temp.,[2]; 20% w/v in alkylamine oxide,45 °C
same,Dissolution temp.,[2]; [8],45 °C
same,Dissolution temp.,[2]; [9],45 °C
same,melting/dissolution point,"[3]; 40 wt % in ethoxylated cocoamine (2EO) surfactant, FIG. 14",71 °C
same,melting/dissolution point,"[3]; 65 wt % in ethoxylated cocoamine (2EO) surfactant, FIG. 14",91 °C
same,"dissolution/melting point, rank among surfactants tested",[3]; amidopropylamine surfactant,lowest
same,effect of surfactants on dissolution/melting temperature,[3],reduced
butafenamid,water solubility (Solub.),[1],3.3 µg/mL
CC(=O)O.CC1CN(C2CCCCCCCCCCC2)CC(C)O1 (stereo not drawn) [dedemorph acetate],water solubility (Solub.),[1],736 µg/mL
CC1CN(C2CCCCCCCCCCC2)CC(C)O1 (stereo not drawn) [dodemorph],water solubility (Solub.),[1],<100 µg/mL
C=CCNC(=O)c1c([Si](C)(C)C)sc(C)c1C [silithiofam],water solubility (Solub.),[1],39.9 µg/mL
CC(C)(C)C(=O)C(Oc1ccc(Cl)cc1)n1cncn1 (stereo not drawn) [triadimefon],water solubility (Solub.),[1],64 µg/mL
COP(=O)(OC)O/C(=C\Cl)c1ccc(Cl)cc1Cl [dimethylvinphos],water solubility (Solub.),[1],0.13 µg/mL
CCOC(=O)NCCOc1ccc(Oc2ccccc2)cc1 [fenoxycarb],water solubility (Solub.),[1],7.9 µg/mL
anilofos,water solubility (Solub.),[1],13.6 µg/mL
Cc1ccc(N(SC(F)(Cl)Cl)S(=O)(=O)N(C)C)cc1 [tolyfluanid],water solubility (Solub.),[1],0.9 µg/mL
CCOCOc1ccc(C(=O)Nc2cccc(Cl)c2Cl)cc1 [etobenzanid],water solubility (Solub.),[1],0.9 µg/mL
CCOC(=O)C1=NN(c2ccc(Cl)cc2Cl)C(C)(C(=O)OCC)C1 (stereo not drawn) [mefenpyr-diethyl],water solubility (Solub.),[1],20 µg/mL
CC(Oc1ccc(Cl)cc1Cl)C(=O)NC(C)(C#N)C(C)C (stereo not drawn) [fenoxanil],water solubility (Solub.),[1],30.7 µg/mL
COP(=S)(OC)Oc1c(Cl)cc(C)cc1Cl [tolclofos-methyl],water solubility (Solub.),[1],1.1 µg/mL
CO/C=C(/C(=O)OC)c1ccccc1COc1cccc(C(F)(F)F)n1 [picoxystrobin],water solubility (Solub.),[1],3.1 µg/mL
CCOC(=O)C(C)Oc1ccc(Oc2nc3ccc(Cl)cc3o2)cc1 (stereo not drawn) [fenoxaprop-ethyl],water solubility (Solub.),[1],0.9 µg/mL
CCCCCOC(=O)COc1cc(N2C(=O)C3=C(CCCC3)C2=O)c(F)cc1Cl [flumiclorac-pentyl],water solubility (Solub.),[1],0.2 µg/mL
CCC(C)c1cc([N+](=O)[O-])cc([N+](=O)[O-])c1OC(=O)OC(C)C (stereo not drawn) [dinobuton],water solubility (Solub.),[1],0.1 µg/mL
CCOC(=O)C(C)Oc1ccc(Oc2ncc(C(F)(F)F)cc2Cl)cc1 (stereo not drawn) [haloxyfop-ethyl],water solubility (Solub.),[1],0.6 µg/mL
